From ChEMBL document CHEMBL4619814, “Identification and Development of 1,4-Diaryl-1,2,3-triazolo-Based Ureas as Novel FLT3 Inhibitors” (ACS Med Chem Lett, 2020)
The source made the active and inactive calls. No cut-off for these calls is given here.

What was measured:
[1] = Toxicity in CB17-SCID mouse xenografted with human MV4-11 cells assessed as side effects at 10 to 40 mg/kg, po administered for 10 days and observed on day 10; type: organism-based; details: in vivo, 240 h
MV4-11 [2] = test: Induction of apoptosis in human MV4-11 cells assessed as necrotic cells at 100 nM incubated for 48 hrs by annexin V and 7-AAD staining based flow cytometry analysis (reference value: 0.91 %); type: functional
[3] = molecular target: Receptor-type tyrosine-protein kinase FLT3 (Homo sapiens, UniProt P36888, ITD); type: cell-based, Sf9
MV4-11 [4] = test: Induction of cell cycle arrest in human MV4-11 cells assessed as G2/M phase at 100 nM incubated for 48 hrs by propidium iodide staining based flow cytometry analysis (reference value: 24.88 %); type: functional
[5] = Tmax in Sprague-Dawley rat at 5 mg/kg, iv; type: ADME, organism-based; details: in vivo
[6] = test system: Receptor-type tyrosine-protein kinase FLT3 (Homo sapiens), P36888 [UNDEFINED MUTATION]; test: Inhibition of FLT3 ITD mutant expressed in human MV4-11 cells assessed as reduction in FLT3 phosphorylation at 0.8 to 500 nM incubated for 6 hrs by Western blot analysis; type: cell-based
MV4-11 [7] = test: Induction of cell cycle arrest in human MV4-11 cells assessed as G2/M phase at 20 nM incubated for 48 hrs by propidium iodide staining based flow cytometry analysis (reference value: 24.88 %); type: functional
[8] = molecular target: T1, Receptor-type tyrosine-protein kinase FLT3 (Homo sapiens, UniProt P36888)
T1 sequence (P36888 whole entry): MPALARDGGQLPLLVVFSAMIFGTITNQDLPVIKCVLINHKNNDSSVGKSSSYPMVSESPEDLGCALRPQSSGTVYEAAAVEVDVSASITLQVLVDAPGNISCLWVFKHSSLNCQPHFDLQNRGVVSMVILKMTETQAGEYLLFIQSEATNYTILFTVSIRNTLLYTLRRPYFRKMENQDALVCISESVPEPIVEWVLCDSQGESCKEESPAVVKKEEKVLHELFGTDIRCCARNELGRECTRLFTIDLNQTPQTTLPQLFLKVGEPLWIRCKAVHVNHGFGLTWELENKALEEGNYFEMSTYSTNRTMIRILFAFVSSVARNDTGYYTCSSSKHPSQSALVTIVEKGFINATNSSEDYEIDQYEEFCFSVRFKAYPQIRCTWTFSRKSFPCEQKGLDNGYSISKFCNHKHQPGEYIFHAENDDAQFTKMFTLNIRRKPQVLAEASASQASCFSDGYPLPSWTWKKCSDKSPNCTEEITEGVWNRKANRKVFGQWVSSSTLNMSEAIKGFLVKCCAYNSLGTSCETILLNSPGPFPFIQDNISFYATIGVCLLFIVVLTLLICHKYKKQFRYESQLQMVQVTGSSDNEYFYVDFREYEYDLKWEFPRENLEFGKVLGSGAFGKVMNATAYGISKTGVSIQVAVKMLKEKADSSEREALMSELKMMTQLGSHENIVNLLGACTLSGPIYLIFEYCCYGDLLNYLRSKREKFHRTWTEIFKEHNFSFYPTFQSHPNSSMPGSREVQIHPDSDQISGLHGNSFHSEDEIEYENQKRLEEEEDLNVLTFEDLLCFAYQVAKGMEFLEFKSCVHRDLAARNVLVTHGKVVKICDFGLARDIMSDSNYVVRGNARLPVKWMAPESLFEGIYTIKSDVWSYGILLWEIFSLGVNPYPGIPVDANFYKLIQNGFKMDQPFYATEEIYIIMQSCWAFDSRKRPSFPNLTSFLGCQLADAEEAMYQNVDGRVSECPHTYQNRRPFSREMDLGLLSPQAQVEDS
Description: Binding affinity to recombinant human FLT3 (592 to 969 residues) expressed in bacterial expression system by Kinomescan method

MV4-11 [9] = test: Induction of cell cycle arrest in human MV4-11 cells assessed as reduction in Cyclin E expression at 0.16 to 100 nM by Western blot analysis; type: functional, cell-based
NB-4 = test: cells; details: Homo sapiens, NB-4, 72 h
Description: Cytotoxicity against human NB4 cells assessed as reduction in cell viability incubated for 72 hrs by CCK8 assay

MV4-11 [10] = test: Induction of apoptosis in human MV4-11 cells assessed as increase in Caspase-9 cleavage at 0.16 to 100 nM by Western blot analysis; type: functional, cell-based
MV4-11 [11] = test: Induction of cell cycle arrest in human MV4-11 cells assessed as S phase at 100 nM incubated for 48 hrs by propidium iodide staining based flow cytometry analysis (reference value: 20.14 %); type: functional
[12] = test system: Receptor-type tyrosine-protein kinase FLT3 (Homo sapiens), P36888 [UNDEFINED MUTATION]; details: MV4-11
Description: Inhibition of FLT3 ITD mutant expressed in human MV4-11 cells assessed as reduction in cell growth incubated for 72 hrs by CCK8 assay

MV4-11 [13] = test: Induction of cell cycle arrest in human MV4-11 cells assessed as G2/M phase at 4 nM incubated for 48 hrs by propidium iodide staining based flow cytometry analysis (reference value: 24.88 %); type: functional
[14] = Oral bioavailability in Sprague-Dawley rat at 25 mg/kg; type: ADME, organism-based; details: in vivo
MV4-11 [15] = test: Induction of cell cycle arrest in human MV4-11 cells assessed as G0/G1 phase at 100 nM incubated for 48 hrs by propidium iodide staining based flow cytometry analysis (reference value: 54.82 %); type: functional
[16] = Cmax in Sprague-Dawley rat at 5 mg/kg, iv; type: ADME, organism-based; set-up: dose 5 mg/kg, route intravenous; details: in vivo
MV4-11 [17] = test: Induction of apoptosis in human MV4-11 cells assessed as early apoptotic cells at 4 nM incubated for 48 hrs by annexin V and 7-AAD staining based flow cytometry analysis (reference value: 6.36 %); type: functional
MV4-11 [18] = test: Induction of cell cycle arrest in human MV4-11 cells assessed as S phase at 4 nM incubated for 48 hrs by propidium iodide staining based flow cytometry analysis (reference value: 20.14 %); type: functional
[19] = AUC in Sprague-Dawley rat at 5 mg/kg, iv; type: ADME, organism-based; details: in vivo
MV4-11 [20] = test: Induction of cell cycle arrest in human MV4-11 cells assessed as G0/G1 phase at 4 nM incubated for 48 hrs by propidium iodide staining based flow cytometry analysis (reference value: 54.82 %); type: functional
[21] = molecular target: Receptor-type tyrosine-protein kinase FLT3 (Homo sapiens) (UniProt P36888); test: Inhibition of FLT3 in human NB4 cells assessed as reduction in FLT3 phosphorylation at 0.8 to 500 nM incubated for 6 hrs by Western blot analysis; type: cell-based; details: NB-4
MV4-11 [22] = test: Induction of cell cycle arrest in human MV4-11 cells assessed as reduction in CDK2 expression at 0.16 to 100 nM by Western blot analysis; type: functional, cell-based
MV4-11 [23] = test: Induction of cell cycle arrest in human MV4-11 cells assessed as reduction in Cyclin D2 expression at 0.16 to 100 nM by Western blot analysis; type: functional, cell-based
MV4-11 [24] = test: Induction of apoptosis in human MV4-11 cells assessed as late apoptotic cells at 100 nM incubated for 48 hrs by annexin V and 7-AAD staining based flow cytometry analysis (reference value: 2.25 %); type: functional
[25] = molecular target: Platelet-derived growth factor receptor beta (Homo sapiens, UniProt P09619)
Sequence of Platelet-derived growth factor receptor beta (P09619 whole entry): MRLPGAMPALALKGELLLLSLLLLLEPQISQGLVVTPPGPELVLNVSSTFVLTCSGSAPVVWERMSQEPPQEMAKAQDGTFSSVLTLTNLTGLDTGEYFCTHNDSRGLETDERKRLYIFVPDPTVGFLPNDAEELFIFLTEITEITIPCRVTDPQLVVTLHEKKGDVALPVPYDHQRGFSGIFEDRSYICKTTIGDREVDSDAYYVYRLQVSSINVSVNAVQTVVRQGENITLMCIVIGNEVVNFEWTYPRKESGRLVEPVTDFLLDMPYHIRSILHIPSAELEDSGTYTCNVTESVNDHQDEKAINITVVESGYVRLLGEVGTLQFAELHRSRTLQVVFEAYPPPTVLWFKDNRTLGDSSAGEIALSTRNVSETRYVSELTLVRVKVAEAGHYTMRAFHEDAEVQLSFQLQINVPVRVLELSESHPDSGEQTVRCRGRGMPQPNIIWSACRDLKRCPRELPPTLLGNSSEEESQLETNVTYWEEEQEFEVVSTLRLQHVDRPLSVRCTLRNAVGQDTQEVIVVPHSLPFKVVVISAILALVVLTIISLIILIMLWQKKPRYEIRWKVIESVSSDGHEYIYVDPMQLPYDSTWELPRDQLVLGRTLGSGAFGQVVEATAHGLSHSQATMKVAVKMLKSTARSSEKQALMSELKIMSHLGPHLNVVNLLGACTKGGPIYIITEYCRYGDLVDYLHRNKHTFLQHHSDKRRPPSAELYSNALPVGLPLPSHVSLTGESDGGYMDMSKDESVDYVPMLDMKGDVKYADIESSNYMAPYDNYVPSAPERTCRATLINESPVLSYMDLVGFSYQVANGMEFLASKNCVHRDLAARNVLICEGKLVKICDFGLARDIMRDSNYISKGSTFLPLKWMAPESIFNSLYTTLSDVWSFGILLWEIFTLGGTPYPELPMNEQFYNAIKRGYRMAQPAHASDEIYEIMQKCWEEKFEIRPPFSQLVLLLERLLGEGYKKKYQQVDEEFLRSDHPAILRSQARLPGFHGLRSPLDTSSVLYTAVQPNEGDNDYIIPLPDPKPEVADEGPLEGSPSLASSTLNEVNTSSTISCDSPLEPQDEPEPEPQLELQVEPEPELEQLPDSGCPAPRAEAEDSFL
Description: Binding affinity to recombinant human PDGFRB (582 to 1009 residues) expressed in bacterial expression system by Kinomescan method

CC(C)(C)c1cc(NC(=O)Nc2ccc(-c3cn(-c4ccc(OCCN5CCOCC5)cc4Cl)nn3)cc2)no1
Activity [1]: Non-Toxic | Activity (MV4-11 [2]): 3.25% | IC50 [3]: 32.8 nM | Activity (MV4-11 [4]): 5.11% | Tmax [5]: 15 min | inhibition [6]: Active | Activity (MV4-11 [7]): 6.53% | Kd [8]: 3.5 nM | Activity (MV4-11 [9]): Active | GI50 (NB-4): > 3000 nM | Activity (MV4-11 [10]): Active | Activity (MV4-11 [11]): 4.98% | GI50 [12]: 3 nM | Activity (MV4-11 [13]): 18.42% | bioavailability [14]: 35.8% | Activity (MV4-11 [15]): 89.92% | Cmax [16]: 6850 ng/mL | Activity (MV4-11 [17]): 7.51% | Activity (MV4-11 [18]): 15.39% | AUC [19]: 21200 ng·h/mL | Activity (MV4-11 [20]): 66.16% | inhibition [21]: inactive | Activity (MV4-11 [22]): Active | Activity (MV4-11 [23]): Active | Activity (MV4-11 [24]): 12.1% | Kd [25]: 8.1 nM
